# In patent US8940304B2, “Monoclonal antibodies against the PBP2-A protein and homologous sequences for the treatment of infections by and immunodiagnostics of bacteria of the firmicutes phylum” (priority 2009, dated 2015):
# Key:
# CEB-MRSA = test: Comparative in vivo protection antibody versus vancomycin, renal quantification, Assay I; design: species or system Staphylococcus aureus
# Description: Four groups of female 8-week Balb/C mice (4 animals per group) received an infective dose of 6.0×10^7 bacteria (CEB-MRSA) by intraperitoneal route. The animals received doses of purified monoclonal antibody (MAB), vancomycin, MAB+vancomycin, and negative control, according to the groups below:
# group 1: MAB (400 micrograms) (first day)
# group 2: vancomycin (150 micrograms, intramuscular route, 12/12 hours)
# group 3: vancomycin+MAB (350 micrograms) (1 day after infection)
# The first doses of antibody and vancomycin were administered 4 hours after the administration of the infective dose. The animals were subjected to euthanasia in the fourth day, and the kidneys were aseptically removed and subjected to renal qualification, according to what was previously described.
# In this study, the animals were infected and the administration of the antimicrobial or monoclonal antibodies was started just after four hours of infection. The study was conducted with three distinct groups: one treated with vancomycin, other treated with monoclonal antibodies, and a third one with simultaneous administration of antimicrobial+antibodies. Vancomycin doses were adjusted and administered in a way similar to the cases of infections in humans (500 mg every 12 hours).
# CEB MRSA = test: Comparative in vivo protection antibody versus vancomycin, renal quantification, Assay II; design: species or system Staphylococcus aureus; conditions: antibody 500 μg
# Description: This assay was performed in the same way as the previous one, but, with a lower infective dose (7.0×10^6 bacteria), with the group 1 being treated with 500 micrograms of purified monoclonal antibody; group 2 being treated with vancomycin (150 micrograms, intramuscular route, 12/12 hours; 5 doses); group 3 being treated with vancomycin+500 micrograms of monoclonal antibody; and group 4 being control (non-treated animals).
smiles,measurement,setting,value
CN[C@H](CC(C)C)C(=O)N[C@H]1C(=O)N[C@@H](CC(N)=O)C(=O)N[C@H]2C(=O)N[C@H]3C(=O)N[C@H](C(=O)N[C@H](C(=O)O)c4cc(O)cc(O)c4-c4cc3ccc4O)[C@H](O)c3ccc(c(Cl)c3)Oc3cc2cc(c3O[C@@H]2O[C@H](CO)[C@@H](O)[C@H](O)[C@H]2O[C@H]2C[C@](C)(N)[C@H](O)[C@H](C)O2)Oc2ccc(cc2Cl)[C@H]1O [vancomycin],reduction in the quantity of bacteria present in the kidneys versus non-treated animals,"CEB-MRSA; Assay I: 6.0×10^7 bacteria CEB MRSA IP, treatment from 4 hours after infection, three days after infection, vancomycin every 12 hours (5 doses)",around 15 times
same,"bacteria recovered from kidneys, mean of group","CEB-MRSA; Assay I: 6.0×10^7 bacteria CEB MRSA, antibody 400 μg, vancomycin 5 doses, antibody (300 μg)+vancomycin","172,250 bacteria"
same,"bacteria recovered from kidneys, mean of group","CEB MRSA; Assay II: 7.0×10^6 bacteria CEB MRSA, vancomycin every 12 hours (5 doses), antibody (500 μg)+vancomycin",720 bacteria
same,reduction of bacteria in kidneys versus non-treated animals,"CEB MRSA; Assay II: lower infective dose 7.0×10^6 bacteria CEB MRSA, vancomycin 5 doses, combination",35 times
